Reference: patent publication US20250250251A1, “PIPERIDINYLPYRIDINYLCARBONITRILE DERIVATIVES AS INHIBITORS OF GLUTAMINYL-PEPTIDE CYCLOTRANSFERASE AND GLUTAMINYL-PEPTIDE CYCLOTRANSFERASE LIKE PROTEIN” (Boehringer Ingelheim International GmbH, priority 2024, published 2025)
One block for each molecule: values may come before it.

Experiments:
CACO-2 cells = experiment: Assay C: permeability in CACO-2 cells; assay type: in vitro ADME; details: pairs with and without 4-fluoropiperidyl, CACO2 cells
Procedure: (§1) Caco-2 cells (1-2×10^5 cells/1 cm^2 area) are seeded on filter inserts (Costar transwell polycarbonate or PET filters, 0.4 μm pore size) and cultured (DMEM) for 10 to 25 days. Compounds are dissolved in appropriate solvent (like DMSO, 1-20 mM stock solutions). […] The transport solution (TL) is applied to the apical or basolateral donor side for measuring A-B or B-A permeability (3 filter replicates), respectively. Samples are collected at the start and end of experiment from the donor and at various time intervals for up to 2 hours also from the receiver side for concentration measurement by HPLC-MS/MS or scintillation counting. Sampled receiver volumes are replaced with fresh receiver solution.
(§2) Efflux ratio (ER)=permeability B−A/permeability A−B

QPCTL = biological target: T1, QPCTL (Homo sapiens, UniProt Q9NXS2); experiment: Assay A: biochemical QPCTL activity assay (MALDI-TOF MS, CD47 peptide substrate); details: Table 2, compounds of the invention, read-out: Inhibition of QPCTL: IC50
T1 construct: made in house
Procedure: (§3) QPCT or QPCTL dependent conversion of N-terminal glutamine to pyroglutamate of CD47 was monitored via MALDI-TOF MS. Test compounds were dissolved in 100% DMSO and serially diluted into clear 1,536-well microtiter plates. Enzymatic reactions were set up in assay buffer containing 20 mM Tris pH 7.5, 0.1 mM TCEP, 0.01% BSA, and 0.001% Tween20. […] The plates were incubated for 10 min in a humidified incubator at 24° C. Subsequently, 2.5 μL of CD47 peptide substrate surrogate (^19[…]^33) was added to each well (final concentration: 10 μM for QPCTL/20 μM for QPCT). The plates were mixed for 30 sec at 1,000 rpm and subsequently incubated for 40 min in a humidified incubator at 24° C. […] The plates were sealed with an adhesive foil, mixed for 30 s at 1,000 rpm and stored at room temperature until preparation of the MALDI target plates. MALDI target plates were prepared as described previously. […] QPCT or QPCTL activity was monitored by calculating the ratio between product and internal standard signals followed by normalization to high (100% activity) and low (0% activity) controls. Determination of compound potencies was obtained by fitting the dose-response data to a four-parameter logistical equation.

[1] = Assay C: permeability in CACO-2 cells; assay type: in vitro ADME; details: human, pH 7.2, Table 7, compounds of the invention, CACO-2 cells; for efflux ratio: permeability B-A/permeability A-B, read-out: Efflux Ratio
Procedure: as §1, §2

QPCT = biological target: T2, QPCT (Homo sapiens, UniProt Q16769); experiment: Assay A: biochemical QPCT activity assay (MALDI-TOF MS, CD47 peptide substrate); details: Table 2, compounds of the invention, read-out: Inhibition of QPCT: IC50
T2 construct: purchased Origine (OriGene) TP700028
Procedure: as §3

[2] = test system: SIRPα signalling induced by A549 cells; experiment: Assay B: SIRPα signalling assay using A549 cells; assay type: cell-based; details: Homo sapiens, Table 4, compounds of the invention, read-out: Inhibition of SIRPα signalling induced by A549 cells: IC50
Procedure: Two cell types are independently used: the Raji cell line (lymphoblast-like human cell line derived from B lymphocytes from a Burkitt's lymphoma patient in 1963) and A549 cells (adenocarcinoma human alveolar basal epithelial cells).
Test compounds were dissolved in 100% DMSO and serially diluted into a white 384-well microtiter cell culture plate (PerkinElmer #60076780 in case of Raji assay; PDL-coated plates Greiner #781945 in case of A549 assay). 5000 Raji cells (ATCC #CC86) or 5000 A549 cells (ATCC #CCL-185) in Assay Complete Cell Plating reagent 30 (DiscoverX 93-0563R30B) were added per well. The assay plate was incubated for 48 h at 37° C., 95% humidity and 5% CO2. 15000 reporter cells (Jurkat PathHunter SIRPαV1, DiscoverX #93-1135C19) were added to each well, and the plate was incubated for 5 h at 37° C., 95% humidity and 5% CO2. Bioassay reagent 1 of the PathHunter Bioassay detection kit (DiscoverX 93-0001) was added to each well of the plate using a multichannel pipette followed by a 15 min incubation at room temperature. Afterwards bioassay reagent 2 was added followed by 60 min incubation at room temperature (incubation in the dark).
The analysis of the data was performed using the luminescence signal generated by beta-galactosidase in the PathHunter reporter cell line. The luminescence measurement was done using a Pherastar Multi-Mode Reader. Dose-response curves & IC50 data were calculated with 4-parameter sigmoidal dose response formula.

[3] = test system: SIRPα signalling induced by Raji cells; experiment: Assay B: SIRPα signalling assay using Raji cells; assay type: cell-based; details: Homo sapiens, Table 4, compounds of the invention, read-out: Inhibition of SIRPα signalling induced by Raji cells: IC50
Procedure: Bioassay reagent 1 of the PathHunter Bioassay detection kit (DiscoverX 93-0001) was added to each well of the plate using a multichannel pipette followed by a 15 min incubation at room temperature. Afterwards bioassay reagent 2 was added followed by 60 min incubation at room temperature (incubation in the dark).
The analysis of the data was performed using the luminescence signal generated by beta-galactosidase in the PathHunter reporter cell line. The luminescence measurement was done using a Pherastar Multi-Mode Reader.

CYP3A4 mRNA = experiment: Assay D: CYP induction screening assay in primary human hepatocytes; assay type: in vitro ADME; details: Table 9, compounds of the invention, 48 h
Procedure: Cryopreserved plateable human hepatocytes (single donor. BioIVT) were thawed and plated in Collagen-I coated 96-well-plates at a cell density of 0.07 million cells per well.
After a 6 h attachment period, the seeding medium was replaced by serum-free William's medium E supplemented with Matrigel (0.25 mg/ml) and allowed to recover overnight. 24 h post-seeding, serum-free Williams E medium containing the test compound at a final concentration of […] and a final DMSO content of 0.1% and 0.1% DMSO (solvent-treated control), respectively, was added to predefined wells. Exposure solutions were renewed after 24 h.
After 48 h of treatment in total, the effect of the test compounds on CYP3A4 mRNA expression was assessed using the QuantiGene Plex Gene Expression Assay. Hepatocytes were lysed and total RNA was extracted using the QuantiGene Sample Processing Kit according to the instructions of the manufacturer.
mRNA quantification was conducted using a customized QuantiGene Plex Panel to analyse CYP3A4 and the housekeeper genes RPL32, EIF4E2 and GUSB according to the instructions of the manufacturer and measured on a Luminex™ instrument. Signal was reported as median fluorescence intensity (MFI), which is proportional to the number of target RNA molecules present in the sample.
For calculation of CYP3A4 mRNA induction, the signal for CYP3A4 was normalized against the geometric mean of the signal obtained for the housekeeper genes for hepatocytes exposed to test compounds in relation to solvent-treated samples according to the following equation: […]

murine hepatocytes = experiment: Assay E: stability in murine hepatocytes; assay type: in vitro ADME, mouse; details: Table 12, compounds of the invention, 1 μM, 5% species serum
Procedure: The metabolic degradation of the test compound is assayed in a murine hepatocyte suspension.
Murine hepatocytes (typically cryopreserved) are incubated in an appropriate buffer system (e.g. Dulbecco's modified eagle medium plus 3.5 μg glucagon/500 mL, 2.5 mg insulin/500 mL and 3.75 mg/500 mL hydrocortison) containing 5% species serum.
Following a (typically) 30 min preincubation in an incubator (37° C., 10% CO2) 5 μl of test compound solution (80 μM; from 2 mM in DMSO stock solution diluted 1:25 with medium) are added into 395 μl hepatocyte suspension (cell density in the range 0.25-5 Mio cells/mL, typically 1 Mio cells/mL; final concentration of test compound 1 μM, final DMSO concentration 0.05%).
The cells are incubated for six hours (incubator, orbital shaker) and samples (25 μl) are taken at 0, 0.5, 1, 2, 4 and 6 hours. Samples are transferred into acetonitrile and pelleted by centrifugation (5 min). The supernatant is transferred to a new 96-deepwell plate, evaporated under nitrogen and resuspended.
Decline of parent compound is analyzed by HPLC-MS/MS
CLint is calculated as follows CL_[…]=Dose/AUC=(C0/CD)/(AUD+clast/k)×1000/60. C0: initial concentration in the incubation [μM], CD: cell density of vital cells [10e6 cells/mL], AUD: area under the data [μM×h], clast: concentration of last data point [μM], k: slope of the regression line for parent decline [h−1].
The calculated in vitro hepatic intrinsic clearance can be scaled up to the intrinsic in vivo hepatic Clearance and used to predict hepatic in vivo blood clearance (CL) by the use of a liver model (well stirred model).
[formula] [formula] [formula] • Hepatocellularity, mouse: 120×10e6 cells/g liver • Liver factor, mouse: 55 g/kg bodyweight • Blood flow, mouse: 90 ml/(min×kg)

T2 sequence (Q16769 29-361): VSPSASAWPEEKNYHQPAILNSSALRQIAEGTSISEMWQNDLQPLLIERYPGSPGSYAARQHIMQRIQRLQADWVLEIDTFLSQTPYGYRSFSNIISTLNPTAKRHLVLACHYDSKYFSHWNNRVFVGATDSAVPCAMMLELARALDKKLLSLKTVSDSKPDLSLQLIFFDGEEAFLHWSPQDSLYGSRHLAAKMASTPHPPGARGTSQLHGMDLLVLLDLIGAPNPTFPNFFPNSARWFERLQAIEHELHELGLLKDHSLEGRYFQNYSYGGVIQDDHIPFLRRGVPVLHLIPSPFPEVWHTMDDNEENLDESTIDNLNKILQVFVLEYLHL
T1 sequence (Q9NXS2 whole entry, species assumed): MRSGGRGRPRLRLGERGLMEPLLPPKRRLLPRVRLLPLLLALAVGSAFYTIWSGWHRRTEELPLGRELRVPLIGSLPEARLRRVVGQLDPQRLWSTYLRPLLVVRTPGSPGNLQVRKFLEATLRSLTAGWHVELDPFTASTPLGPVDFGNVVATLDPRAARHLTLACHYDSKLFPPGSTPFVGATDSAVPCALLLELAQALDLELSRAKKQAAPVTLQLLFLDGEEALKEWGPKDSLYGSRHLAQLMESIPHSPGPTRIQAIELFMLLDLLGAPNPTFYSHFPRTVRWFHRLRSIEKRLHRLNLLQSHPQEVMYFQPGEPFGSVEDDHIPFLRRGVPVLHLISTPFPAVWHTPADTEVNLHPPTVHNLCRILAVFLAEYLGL

- CACO2 Perm. (CACO-2 cells): 1.0 10^−6 cm/sec
Compound: Cn1cnnc1C1CCN(c2c(C#N)cc(C(F)(F)F)nc2-c2cnc3nn(C(C)(C)C)c(Cl)c3c2)CC1

- CACO2 Perm. (CACO-2 cells): 23.0 10^−6 cm/sec
Compound: Cn1cnnc1C1CCN(c2c(C#N)cc(Cl)cc2-c2ccc(F)nc2)CC1 [Compound 18 in WO 2024/020517]

- CACO2 Perm. (CACO-2 cells): 9.0 10^−6 cm/sec
Compound: Cn1cnnc1C1CCN(c2c(C#N)cc(C(F)(F)F)cc2-c2ccc(F)nc2)CC1 [Compound 70 in WO 2024/020517]

- CACO2 Perm. (CACO-2 cells): 24.0 10^−6 cm/sec
Compound: Cn1cnnc1C1CCN(c2c(C#N)cc(F)cc2-c2ccc(F)nc2)CC1 [Compound 130 in WO 2024/020517]

- CACO2 Perm. (CACO-2 cells): 1.8 10^−6 cm/sec
Compound: Cn1cnnc1C1CCN(c2c(-c3ccc(F)nc3)ccnc2C#N)CC1 [Compound 132 in WO 2024/020517]

- CACO2 Perm. (CACO-2 cells): 4.8 10^−6 cm/sec
Compound: Cn1cnnc1C1CCN(c2c(C#N)ccnc2-c2ccc(F)nc2)CC1 [Compound 133 in WO 2024/020517]

- CACO2 Perm. (CACO-2 cells): 28.0 10^−6 cm/sec
Compound: Cn1cnnc1C1(F)CCN(c2c(C#N)ccnc2-c2ccc(F)nc2)CC1 [Example 1 in EP 22188580.9]

- CACO2 Perm. (CACO-2 cells): 47.0 10^−6 cm/sec
Compound: Cn1cnnc1C1(F)CCN(c2c(C#N)cc(C(F)(F)F)nc2-c2cnc3nn(C(C)(C)C)c(Cl)c3c2)CC1 [Example 3 in EP 23189886.7]

- CACO2 Perm. (CACO-2 cells): 40.5 10^−6 cm/sec
Compound: Cn1cnnc1C1(F)CCN(c2c(C#N)cc(C(F)(F)F)cc2-c2ccc(F)nc2)CC1 [Example 4 in EP 23161417.3]

- CACO2 Perm. (CACO-2 cells): 99.5 10^−6 cm/sec
Compound: Cn1cnnc1C1(F)CCN(c2c(C#N)cc(C(F)(F)F)nc2-c2cnc3nn(C(C)(C)C)c(C(F)(F)F)c3c2)CC1 [Example 4 in EP 23189886.7]

- CACO2 Perm. (CACO-2 cells): 44.0 10^−6 cm/sec
Compound: Cn1cnnc1C1(F)CCN(c2c(C#N)cc(F)cc2-c2ccc(F)nc2)CC1 [Example 6 in EP 23161417.3]

- CACO2 Perm. (CACO-2 cells): 11.0 10^−6 cm/sec
Compound: Cn1cnnc1C1(F)CCN(c2c(-c3ccc(F)nc3)ccnc2C#N)CC1 [Example 10 in EP 22188580.9]

- CACO2 Perm. (CACO-2 cells): 3.7 10^−6 cm/sec
Compound: Cn1cnnc1C1CCN(c2c(C#N)cc(C(F)(F)F)nc2-c2cnc3nn(C(C)(C)C)c(C(F)(F)F)c3c2)CC1 [Example 13 in EP 23189886.7]

- CACO2 Perm. (CACO-2 cells): 2.5 10^−6 cm/sec
Compound: Cn1cnnc1C1CCN(c2c(C#N)cc(Cl)cc2-c2cnc3nn(C(C)(C)C)cc3c2)CC1 [Example 17 in EP 23161417.3]

- CACO2 Perm. (CACO-2 cells): 66.0 10^−6 cm/sec
Compound: Cn1cnnc1C1(F)CCN(c2c(C#N)cc(Cl)cc2-c2ccc(F)nc2)CC1 [Example 18 in EP 23161417.3]

- CACO2 Perm. (CACO-2 cells): 18.0 10^−6 cm/sec
Compound: Cn1cnnc1C1(F)CCN(c2c(C#N)cc(Cl)cc2-c2cnc3nn(C(C)(C)C)cc3c2)CC1 [Example 19 in EP 23161417.3]

- IC50 (QPCTL): 2 nM
- Papp A→B [1]: 3.4 ×10⁻⁶ cm/s
- efflux ratio [1]: 17.9
- IC50 (QPCT): 3 nM
- IC50 [2]: 27 nM
- IC50 [3]: 73 nM
- n-fold induction of CYP3A4 at 10 μM (CYP3A4 mRNA): 1.1 n-fold
- Mouse Hepatocyte Stability QH (murine hepatocytes): <12%
Compound: Cn1cc(-c2cc(C#N)c(N3CCC(F)(c4nncn4C)CC3)c(-c3cnc4nn(C(F)(F)F)cc4c3)n2)cn1 [Example 24]

- IC50 (QPCTL): 3 nM
- Papp A→B [1]: 3.1 ×10⁻⁶ cm/s
- efflux ratio [1]: 16.8
- IC50 (QPCT): 3 nM
- IC50 [2]: 52 nM
- IC50 [3]: 181 nM
- n-fold induction of CYP3A4 at 10 μM (CYP3A4 mRNA): 0.8 n-fold
- Mouse Hepatocyte Stability QH (murine hepatocytes): 38%
Compound: Cc1ncc(-c2cc(C#N)c(N3CCC(F)(c4nncn4C)CC3)c(-c3cnc4nn(C(F)(F)F)cc4c3)n2)cn1 [Example 25]

- IC50 (QPCTL): 1 nM
- Papp A→B [1]: 17 ×10⁻⁶ cm/s
- efflux ratio [1]: 4.8
- IC50 (QPCT): 1 nM
- IC50 [2]: 11 nM
- IC50 [3]: 4 nM
- n-fold induction of CYP3A4 at 10 μM (CYP3A4 mRNA): 7.9 n-fold
- Mouse Hepatocyte Stability QH (murine hepatocytes): 27%
Compound: Cn1cnnc1C1(F)CCN(c2c(C#N)cc(C(F)(F)F)nc2-c2cnc3nn(C(C)(C)C)c(C4CC4)c3c2)CC1 [Example 26]

- CACO2 Perm. (CACO-2 cells): 1.7 10^−6 cm/sec
Compound: Cn1cnnc1C1(F)CCN(c2c(-c3cnc4nn(C(C)(C)C)cc4c3)ccc(C(F)(F)F)c2C#N)CC1 [Example 30 in EP 23161417.3]
